For test [1], the system named is methanogenesis in rumen liquor. The test can be described thus: In vitro test for methane production (modified Hohenheim Forage value Test). The format is cell-based. The conditions noted are these: for inhibition at 0.5 % / inhibition at 2 % / inhibition at 0.005 % / inhibition at 0.01 % / inhibition at 0.05 % / inhibition at 0.1 % / inhibition at 1 %: read-out: effect on methanogenesis (%).

Test [2] concerns methanogenic archaea (mcrA gene). The format is in vivo, sheep.
The subject of test [3] is protozoa (18S rRNA). The format is in vivo, sheep.
For test [4], the system named is total bacteria (16S rRNA). The format is in vivo, sheep.
Test [5] deals with methane emissions by sheep. The format is in vivo.
For test [6], the system named is volatile fatty acid profile and ammonia N concentration in the rumen. The format is in vivo, sheep.
Test [7] has as its system methane production of dairy cows. More on the design: species or system Holstein X Friesian dairy cows. To be noted: in vivo.
The mark [8] stands for this setting: rumen of sheep, 100 mg per animal and day.
The mark [9] stands for this setting: rumen of sheep, mcrA gene qPCR, 100 mg per animal and day.
The mark [10] stands for this setting: rumen of sheep, 18S rRNA qPCR, 100 mg per animal and day.
[11] abbreviates: rumen of sheep, 16S rRNA qPCR, 100 mg per animal and day.
Setting [12] is: sheep, 100 mg per animal and day via ruminal cannula, day 14.
[13] abbreviates: sheep, 100 mg per animal and day via ruminal cannula, day 29.
[14] abbreviates: sheep, 100 mg per animal and day via ruminal cannula, day 30.
The mark [15] stands for this setting: sheep, 100 mg per animal and day via ruminal cannula, days 29-30 pooled.
The mark [16] stands for this setting: rumen of sheep, samples of days 29 and 30, 100 mg per animal and day.
[17] abbreviates: 8 h, comparative example, 0.1% DM, average of two experiments.

Values joined by “and” are separate entries in the source; they are usually repeats but may differ in a detail not shown here. Equal values may be shown once. Read-outs that look alike come from different tables or passages of the source. Marks after values point to notes of the source that are not given here.

Regarding `O=[N+]([O-])OCC(CCc1ccccc1)O[N+](=O)[O-]` (racemic) [Compound 2, rac-4-Phenylbutane-1,2-diyl dinitrate], in test [1] (8 h), the inhibition at 0.5 % is 4% and the inhibition at 2 % stood at 10%.

Take `CCOC(=O)CCO[N+](=O)[O-]` [Additive 1, ethyl-3-nitrooxypropionate, reference compound]: in test [2] (setting [8]), the “Archaea ΔCt (relative abundance in relation to total bacteria)” value is on record as 0.022. For the same compound, in test [2] (setting [9]), the Archaea is 2.86 * 10^8 copy gene numbers/g fresh matter and the “Archaea log 10” value is on record as 8.45 log copy gene numbers/g fresh matter. In addition, the “Total protozoa ΔCt (relative abundance in relation to total bacteria)” value in test [3] (setting [8]) is reported as 1.58. In test [3] (setting [10]), the Total protozoa is given as 1.87 * 10^10 copy gene numbers/g fresh matter and the “Total protozoa log 10” value is listed as 10.2 log copy gene numbers/g fresh matter. Also, in test [4] (setting [11]), the Total bacteria was 9.08 * 10^10 copy gene numbers/g fresh matter and the “Total bacteria log 10” value is given as 10.9 log copy gene numbers/g fresh matter. Further, in test [5] (setting [12]), the “CH4 l, day” value is on record as 21.9 l, day and the CH4 l/kg intake came to 25.6 l/kg intake. Moreover, in test [5] (setting [13]), the “CH4 l, day” value is listed as 20.9 l, day and the CH4 l/kg intake was determined as 21.7 l/kg intake. For the same compound, in test [5] (setting [14]), the “CH4 l, day” value is recorded as 21.8 l, day and the CH4 l/kg intake came to 23.2 l/kg intake. Moreover, in test [5] (setting [15]), the “CH4 l, day” value is 21.5 l, day and the CH4 l/kg intake is reported as 22.6 l/kg intake. In test [5] (sheep, 100 mg per animal and day, day 14), the “reduction of methane emissions (liters per kg of fresh matter intake) against the control” value is 14%. For the same compound, in test [6] (setting [16]), the Acetate was 67.5^b mol/100 mol, the Butirate is reported as 2.05 mol/100 mol, the “C2/C3 (acetate to propionate ratio)” value is 4.09^a and the Propionate was 16.6^a mol/100 mol. Further, in test [6] (setting [16]), the “Total (volatile fatty acids)” value was found to be 58.2, the Valerate came to 1.94 mol/100 mol, the iso-butirate is 10.1 mol/100 mol and the iso-valerate is on record as 1.79 mol/100 mol.

In the case of `O=[N+]([O-])OCCCO` [Compound 1, 3-Nitrooxypropanol], in test [2] (in vivo), the Archaea is reported as 2.86 * 10^8 copy gene numbers/g fresh matter, the “Archaea log 10” value is reported as 8.34 log copy gene numbers/g fresh matter and the “Archaea ΔCt (relative abundance in relation to total bacteria)” value was found to be 0.020. In addition, in test [3] (in vivo), the Total protozoa is given as 2.51 * 10^10 copy gene numbers/g fresh matter, the “Total protozoa log 10” value is reported as 10.2 log copy gene numbers/g fresh matter and the “Total protozoa ΔCt (relative abundance in relation to total bacteria)” value is recorded as 1.55. Further, in test [4] (in vivo), the Total bacteria is 9.74 * 10^10 copy gene numbers/g fresh matter and the “Total bacteria log 10” value was 11.0 log copy gene numbers/g fresh matter. Besides, in test [1] (8 h), the inhibition at 0.005 % came to 20%, the inhibition at 0.01 % is 79%, the inhibition at 0.05 % was found to be 100% and the inhibition at 0.1 % came to 100%. In addition, in test [1] (8 h), the inhibition at 0.5 % was 100% and the inhibition at 2 % was 100%. In test [5] (in vivo), the “CH4 l, day” value was 18.3 l, day and 19.7 l, day and 19.1 l, day and 20.0 l, day; the CH4 l/kg intake was 22.5 and 19.6 and 25.6 and 23.1; the “reduction of methane emissions (liters per kg of fresh matter intake) against the control” value is recorded as 23%. Also, in test [6] (in vivo), the Acetate is listed as 64.5^a mol/100 mol, the Butirate is on record as 2.11 mol/100 mol, the “C2/C3 (acetate to propionate ratio)” value was 3.89^a and the Propionate is given as 17.5^b mol/100 mol. Further, in test [6] (in vivo), the “Total (volatile fatty acids)” value worked out at 57.1, the Valerate is listed as 1.82 mol/100 mol and the iso-valerate was 1.82 mol/100 mol. Also, in test [7], the “CH4, L/d” value was 555 L/day and 536 L/day; the “CH4, L/kg DMI” value is 29.9 L/kg DMI and 29.2 L/kg DMI; the “CH4, g/d” value was 398 g/day and 384 g/day.

As to `CCNS(=O)(=O)CCCO[N+](=O)[O-]` [Compound 4, N-Ethyl-3-nitrooxy-propionic sulfonyl amide], in test [1] (8 h), the inhibition at 0.05 % came out at 10%, the inhibition at 0.1 % is 24%, the inhibition at 0.5 % amounted to 99% and the inhibition at 2 % amounted to 99%.

In the case of `CCC(=O)OCCCO[N+](=O)[O-]` [Compound 7, 3-Nitrooxy-propyl propionate], in test [1] (8 h), the inhibition at 0.005 % amounted to 6%, the inhibition at 0.01 % worked out at 21%, the inhibition at 0.05 % was 100% and the inhibition at 0.1 % was determined as 100%.

Turning to `O=C(OCCCO[N+](=O)[O-])c1ccccc1` [Compound 11, 3-Nitrooxy-propyl benzoate], in test [1] (8 h), the inhibition at 0.01 % is 11%, the inhibition at 0.1 % came to 99% and the inhibition at 1 % is 99%.

Turning to `CCCCCC(=O)OCCCO[N+](=O)[O-]` [Compound 12, 3-Nitrooxy-propyl hexanoate], in test [1] (8 h), the inhibition at 0.01 % came to 42%, the inhibition at 0.1 % amounted to 99% and the inhibition at 1 % came to 98%.

Regarding `O=[N+]([O-])OCc1ccccc1` [Compound 14, Benzylnitrate], in test [1] (8 h), the inhibition at 0.05 % is 3%, the inhibition at 0.1 % turned out to be 37%, the inhibition at 0.5 % turned out to be 100% and the inhibition at 2 % came to 100%.

On to `O=C(NCCO[N+](=O)[O-])c1cccnc1` [Compound 16, N-[2-(Nitrooxy)ethyl]-3-pyridinecarboxamide], for which the inhibition at 1 % in test [1] (1% DM, reduction in methane vs control, 8 hours at 39° C., average of two experiments) is 100%.

Consider `O=[N+]([O-])[O-].[Na+]` [Na NO3, reference compound], for which the “effect on methanogenesis (%)” value in test [1] (comparative example, 0.5% DM, average of two experiments) is recorded as 2%; in test [1] (comparative example, 2% DM, average of two experiments) it was 23%.

Regarding `O=[N+]([O-])CCCO` [reference compound], the inhibition at 0.1 % in test [1] (setting [17]) was found to be 2%.

With `COCCCO` [reference compound], the inhibition at 0.1 % in test [1] (setting [17]) stood at 8%.

For the compound `CCOC(=O)CCO` [reference compound], the inhibition at 0.1 % in test [1] (setting [17]) was 6%.
